Experimental data from patent US4340598A, “Hypotensive imidazole derivatives” (Takeda Chemical Industries, Ltd., priority 1979, dated 1982).
Counter-ions that a name gives are not always drawn.

tested on: Angiotensin II (aortic blood vessel of a rabbit); experiment: Angiotensin II antagonistic effect, inhibition of A II-induced isometric tension change of isolated rabbit aortic blood vessel; format: cell-based; conditions: Oryctolagus cuniculus, 0.25 h; Concn. of drug substance 10^-5 M; A II 4×10^-9 M; 15 minutes treatment; read-out: Potency of inhibition
Experimental: Angiotensin II (hereinafter referred to briefly as A II) antagonistic effect of the compound (I) of the present invention (aortic blood vessel of a rabbit). The blood-vessel preparation and reaction were done in accordance with the method as described in "European Journal of Pharmacology", vol. 18, pp. 316 (1972). While employing A II in the concentration of 4×10^-9M, the potency of inhibition was calculated by the following equation from changes in isometric tension of the blood vessel brought about by A II and that found after treatment with a test drug substance for 15 minutes, respectively. [formula] where; T1 =Change in isometric tension of the blood vessel brought about by A II without treatment with a test drug substance (g) T2 =Change in tension found after treatment with a test drug substance (g)

| SMILES | inhibition at 10 µM [%] |
| --- | --- |
| COC(=O)Cc1cnc(-c2ccccc2)n1Cc1ccc([N+](=O)[O-])cc1 | 38 |
| NC(=O)Cc1c(Cl)nc(-c2ccccc2)n1Cc1ccccc1 | 20 |
| CCCCn1c(-c2ccccc2)nc(Cl)c1CC(=O)O [1-n-butyl-4-chloro-2-phenylimidazole-5-acetic acid] | 25 |
| O=C(O)Cc1nc(-c2ccccc2)n(Cc2ccccc2)c1Cl | 10 |
| COc1ccc(-c2ncc(CC(=O)O)n2Cc2ccccc2)cc1 | 5 |
| O=C(O)c1c(Cl)nc(-c2ccccc2)n1Cc1ccccc1 | 5 |
| O=C(O)CCc1c(Cl)nc(-c2ccccc2)n1Cc1ccccc1 | 13 |
| O=C(O)Cc1c(Cl)nc(-c2ccccc2)n1CCc1ccccc1 [4-chloro-2-phenyl-1-phenethylimidazole-5-acetic acid hydrochloride] | 12 |
| CN(C)c1ccc(-c2nc(Cl)c(C(N)=O)n2Cc2ccccc2)cc1 | 18 |
| Cc1ccc(-c2ncc(CC(=O)O)n2Cc2ccccc2)cc1 | 5 |
| CN(C)c1ccc(-c2nc(Cl)c(CC(N)=O)n2Cc2ccccc2)cc1 | 10 |

same assay, conditions: Oryctolagus cuniculus, 0.25 h; Concn. of drug substance 10^-6 M; A II 4×10^-9 M; 15 minutes treatment; read-out: Potency of inhibition

| SMILES | inhibition at 1 µM [%] |
| --- | --- |
| CCCCc1nc(Cl)c(CC(N)=O)n1Cc1ccccc1 [1-Benzyl-2-butyl-4-chloroimidazole-5-acetamide] | 19 |
| CCCCc1nc(CC(=O)O)c(Cl)n1Cc1ccccc1Cl | 30 |
| O=C(O)Cc1nc(C2CCCC2)n(Cc2ccccc2)c1Cl | 10 |
| CCCCc1nc(CC(=O)O)c(Cl)n1Cc1ccccc1 | 22 |
